Reference: the NIST ThermoML archive (doi:10.1016/j.jct.2013.09.043)

Experiment: xn = mol fraction of the nth substance listed
Settings: 101 kPa, Liquid; for viscosity: Capillary tube (Ostwald / Ubbelohde) method; for mass density: Vibrating tube method

NC=O [formamide] + CCC(C)O
Settings | mass density, 298.15 K [kg/m3] | mass density, 303.15 K [kg/m3] | mass density, 308.15 K [kg/m3] | mass density, 313.15 K [kg/m3] | viscosity, 298.15 K [mPa·s] | viscosity, 303.15 K [mPa·s] | viscosity, 308.15 K [mPa·s] | viscosity, 313.15 K [mPa·s]
x1 = 0.0871 | 815.72 | 811.44 | 807.59 | 802.69 | 3.039 | 2.541 | 2.137 | 1.81
x1 = 0.1597 | 827.26 | 822.99 | 819.07 | 814.17 | 3.048 | 2.561 | 2.158 | 1.836
x1 = 0.2462 | 842.51 | 838.24 | 834.28 | 829.39 | 3.074 | 2.601 | 2.206 | 1.893
x1 = 0.3993 | 874.46 | 870.19 | 866.14 | 861.25 | 3.178 | 2.729 | 2.337 | 2.037
x1 = 0.4397 | 884.15 | 879.88 | 875.81 | 870.92 | 3.207 | 2.763 | 2.372 | 2.078
x1 = 0.5567 | 916.06 | 911.78 | 907.68 | 902.82 | 3.279 | 2.855 | 2.477 | 2.195
x1 = 0.6516 | 947.04 | 942.76 | 938.6 | 933.86 | 3.318 | 2.911 | 2.54 | 2.272
x1 = 0.7376 | 980.23 | 975.94 | 971.72 | 967.08 | 3.336 | 2.945 | 2.582 | 2.324
x1 = 0.8512 | 1033.92 | 1029.63 | 1025.39 | 1020.93 | 3.34 | 2.973 | 2.617 | 2.371
x1 = 0.9309 | 1080.54 | 1076.36 | 1072.19 | 1067.81 | 3.329 | 2.98 | 2.631 | 2.398
x1 = 1 | 1129 | 1125.1 | 1120.98 | 1116.85 | 3.305 | 2.975 | 2.64 | 2.42

CCCCC(C)O (stereo not given) [2-hexanol] + NC=O
Settings | mass density, 298.15 K [kg/m3] | mass density, 303.15 K [kg/m3] | mass density, 308.15 K [kg/m3] | mass density, 313.15 K [kg/m3] | viscosity, 298.15 K [mPa·s] | viscosity, 303.15 K [mPa·s] | viscosity, 308.15 K [mPa·s] | viscosity, 313.15 K [mPa·s]
x2 = 0 | 810.14 | 806.13 | 802.06 | 797.96 | 4.101 | 3.411 | 2.819 | 2.219
x2 = 0.0818 | 818.06 | 814.05 | 809.79 | 805.72 | 4.008 | 3.334 | 2.753 | 2.171
x2 = 0.1638 | 827.12 | 823.03 | 818.79 | 814.58 | 3.918 | 3.276 | 2.711 | 2.16
x2 = 0.2392 | 836.66 | 832.51 | 828.24 | 823.99 | 3.85 | 3.23 | 2.69 | 2.169
x2 = 0.3529 | 853.7 | 849.5 | 845.26 | 841.01 | 3.778 | 3.176 | 2.679 | 2.199
x2 = 0.4439 | 870.39 | 866.2 | 861.95 | 857.71 | 3.744 | 3.187 | 2.686 | 2.235
x2 = 0.5613 | 897.25 | 893.04 | 888.76 | 884.48 | 3.695 | 3.185 | 2.71 | 2.3
x2 = 0.6496 | 922.95 | 918.63 | 914.3 | 909.96 | 3.647 | 3.169 | 2.724 | 2.35
x2 = 0.743 | 957.42 | 953.01 | 948.59 | 944.27 | 3.582 | 3.144 | 2.726 | 2.392
x2 = 0.8502 | 1010.56 | 1006.13 | 1001.67 | 997.41 | 3.479 | 3.078 | 2.695 | 2.406
x2 = 0.9398 | 1072.59 | 1068.37 | 1063.89 | 1059.71 | 3.378 | 3.021 | 2.662 | 2.413

CCCC(C)O (stereo not given) [pentan-2-ol] + NC=O
Settings | mass density, 298.15 K [kg/m3] | mass density, 303.15 K [kg/m3] | mass density, 308.15 K [kg/m3] | mass density, 313.15 K [kg/m3] | viscosity, 298.15 K [mPa·s] | viscosity, 303.15 K [mPa·s] | viscosity, 308.15 K [mPa·s] | viscosity, 313.15 K [mPa·s]
x2 = 0 | 805.05 | 800.88 | 796.89 | 792.62 | 3.423 | 2.834 | 2.348 | 1.979
x2 = 0.0823 | 814.65 | 810.45 | 806.51 | 802.09 | 3.386 | 2.811 | 2.328 | 1.959
x2 = 0.1639 | 825.39 | 821.13 | 817.19 | 812.73 | 3.363 | 2.801 | 2.329 | 1.973
x2 = 0.2393 | 836.58 | 832.27 | 828.29 | 823.79 | 3.353 | 2.811 | 2.348 | 2.004
x2 = 0.3541 | 856.48 | 852.09 | 848.01 | 843.52 | 3.379 | 2.864 | 2.409 | 2.075
x2 = 0.4444 | 875.19 | 870.77 | 866.59 | 862.13 | 3.402 | 2.911 | 2.468 | 2.144
x2 = 0.5612 | 904.57 | 900.13 | 895.87 | 891.4 | 3.422 | 2.964 | 2.544 | 2.237
x2 = 0.6497 | 932.05 | 927.6 | 923.33 | 918.86 | 3.431 | 2.989 | 2.587 | 2.298
x2 = 0.7431 | 967.72 | 963.24 | 959 | 954.54 | 3.42 | 3.003 | 2.615 | 2.343
x2 = 0.8502 | 1020.4 | 1016.03 | 1011.79 | 1007.32 | 3.384 | 3.001 | 2.628 | 2.38
x2 = 0.9398 | 1079.03 | 1074.66 | 1070.45 | 1066.08 | 3.341 | 2.988 | 2.635 | 2.403

CCCCCC(C)O (stereo not given) [2-heptanol] + NC=O
Settings | mass density, 298.15 K [kg/m3] | mass density, 303.15 K [kg/m3] | mass density, 308.15 K [kg/m3] | mass density, 313.15 K [kg/m3] | viscosity, 298.15 K [mPa·s] | viscosity, 303.15 K [mPa·s] | viscosity, 308.15 K [mPa·s] | viscosity, 313.15 K [mPa·s]
x2 = 0 | 813.38 | 809.5 | 805.72 | 801.46 | 5.296 | 4.315 | 3.535 | 2.96
x2 = 0.0819 | 821.08 | 817.04 | 813.18 | 808.95 | 5.094 | 4.157 | 3.403 | 2.842
x2 = 0.1603 | 829.46 | 825.3 | 821.41 | 817.16 | 4.915 | 4.021 | 3.299 | 2.767
x2 = 0.2402 | 839.28 | 835.08 | 831.16 | 826.89 | 4.744 | 3.905 | 3.219 | 2.718
x2 = 0.3508 | 855.44 | 851.28 | 847.38 | 843.03 | 4.541 | 3.773 | 3.131 | 2.669
x2 = 0.4402 | 871.35 | 867.27 | 863.34 | 858.97 | 4.385 | 3.673 | 3.07 | 2.637
x2 = 0.567 | 900.02 | 895.95 | 891.92 | 887.52 | 4.176 | 3.543 | 2.997 | 2.607
x2 = 0.6525 | 924.85 | 920.66 | 916.51 | 912.11 | 4.035 | 3.459 | 2.952 | 2.593
x2 = 0.7403 | 957.01 | 952.58 | 948.4 | 944.03 | 3.881 | 3.363 | 2.896 | 2.571
x2 = 0.8501 | 1010.97 | 1006.37 | 1002.12 | 997.89 | 3.647 | 3.204 | 2.792 | 2.51
x2 = 0.94 | 1072.96 | 1068.47 | 1064.24 | 1059.95 | 3.446 | 3.069 | 2.701 | 2.455

NC=O [formamide] + CC(C)O
Settings | mass density, 298.15 K [kg/m3] | mass density, 303.15 K [kg/m3] | mass density, 308.15 K [kg/m3] | mass density, 313.15 K [kg/m3] | viscosity, 298.15 K [mPa·s] | viscosity, 303.15 K [mPa·s] | viscosity, 308.15 K [mPa·s] | viscosity, 313.15 K [mPa·s]
x1 = 0.0831 | 797.37 | 793.08 | 788.56 | 783.84 | 2.167 | 1.867 | 1.623 | 1.399
x1 = 0.1563 | 813.03 | 808.66 | 803.98 | 799.2 | 2.254 | 1.948 | 1.688 | 1.464
x1 = 0.2377 | 831.8 | 827.33 | 822.51 | 817.62 | 2.382 | 2.064 | 1.791 | 1.567
x1 = 0.3518 | 860.85 | 856.24 | 851.26 | 846.25 | 2.585 | 2.259 | 1.974 | 1.745
x1 = 0.4403 | 885.89 | 881.14 | 876.01 | 871.03 | 2.739 | 2.409 | 2.115 | 1.884
x1 = 0.5371 | 916.34 | 911.48 | 906.38 | 901.3 | 2.888 | 2.556 | 2.256 | 2.026
x1 = 0.6352 | 950.91 | 946.08 | 940.93 | 935.92 | 3.015 | 2.684 | 2.371 | 2.144
x1 = 0.7388 | 992.47 | 987.75 | 982.64 | 977.69 | 3.127 | 2.789 | 2.464 | 2.233
x1 = 0.8497 | 1043.91 | 1039.54 | 1034.66 | 1029.87 | 3.218 | 2.878 | 2.541 | 2.312
x1 = 0.94 | 1092.69 | 1088.45 | 1083.96 | 1079.51 | 3.277 | 2.939 | 2.601 | 2.377
x1 = 1 | 1129 | 1125.1 | 1120.98 | 1116.85 | 3.305 | 2.975 | 2.64 | 2.42
